From patent US20230382924A1, “MODULATORS OF CYSTIC FIBROSIS TRANSMEMBRANE CONDUCTANCE REGULATOR” (VERTEX PHARMACEUTICALS INCORPORATED, priority 2020, published 2023) come the findings set out here.

Like-named read-outs stand apart in the source and are kept apart here. Some results are limits rather than exact numbers.

For this assay, the target named is CFTR (Homo sapiens, UniProt P13569). In words: Membrane Potential Dye, Enteroid Assay A. The assay is classed as cell-based. The settings on record: for EC50: read-out: Ent. A EC50. The method, then:
Base medium (ADF+++) consisted of Advanced DMEM/Ham's F12, 2 mM Glutamax, 10 mM HEPES, […] penicillin/streptomycin.
Bath 1 Buffer consisted of 1 mM MgCl2, 160 mM NaCl, 4.5 mM KCl, 10 mM HEPES, 10 mM Glucose, 2 mM CaCl2).
Chloride Free Buffer consisted of 1 mM Magnesium Gluconate, 2 mM Calcium Gluconate, 4.5 mM Potassium Gluconate, 160 mM Sodium Gluconate, 10 mM HEPES, 10 mM Glucose.
Bath 1 Dye Solution consisted of Bath 1 Buffer, 0.04% Pluronic F127, 20 μM Methyl Oxonol, 30 μM CaCCinh-A01, 30 μM Chicago Sky Blue.
Chloride Free Dye Solution consisted of Chloride Free Buffer, 0.04% Pluronic F127, 20 μM Methyl Oxonol, 30 μM CaCCinh-A01, 30 μM Chicago Sky Blue.
3. Enteroid Cell Harvesting and Seeding
Cells were recovered in cell recovery solution, collected by centrifugation at 650 rpm for 5 min at 4° C., resuspended in TryPLE and incubated for 5 min at 37° C. Cells were then collected by centrifugation at 650 rpm for 5 min at 4° C. and resuspended in IEMM containing 10 μM ROCK inhibitor (RI).
4. Membrane Potential Dye, Enteroid Assay A
Briefly, cells were washed 5 times in Bath 1 Buffer. Bath 1 Dye Solution was added, and the cells were incubated for 25 min at room temperature. Following dye incubation, cells were washed 3 times in Chloride Free Dye Solution. Chloride transport was initiated by addition of Chloride Free Dye Stimulation Solution and the fluorescence signal was read for 15 min. […] Chloride transport was then expressed as a percentage of the chloride transport following treatment with 3 μM N-[(6-amino-2-pyridyl)sulfonyl]-6-(3-fluoro-5-isobutoxy-phenyl)-2-[(4S)-2,2,4-trimethylpyrrolidin-1-yl]pyridine-3-carboxamide, 3 μM (R)-1-(2,2-difluorobenzo[d][1,3]dioxol-5-yl)-N-(1-(2,3-dihydroxypropyl)-6-fluoro-2-(1-hydroxy-2-methylpropan-2-yl)-1H-indol-5-yl)cyclopropanecarboxamide and 300 nM acute N-[2,4-bis(1,1-dimethylethyl)-5-hydroxyphenyl]-1,4-dihydro-4-oxoquinoline-3-carboxamide triple combination control (% Activity).

Chain of CFTR (P13569 with tags, fused parts or gaps DEL508-508): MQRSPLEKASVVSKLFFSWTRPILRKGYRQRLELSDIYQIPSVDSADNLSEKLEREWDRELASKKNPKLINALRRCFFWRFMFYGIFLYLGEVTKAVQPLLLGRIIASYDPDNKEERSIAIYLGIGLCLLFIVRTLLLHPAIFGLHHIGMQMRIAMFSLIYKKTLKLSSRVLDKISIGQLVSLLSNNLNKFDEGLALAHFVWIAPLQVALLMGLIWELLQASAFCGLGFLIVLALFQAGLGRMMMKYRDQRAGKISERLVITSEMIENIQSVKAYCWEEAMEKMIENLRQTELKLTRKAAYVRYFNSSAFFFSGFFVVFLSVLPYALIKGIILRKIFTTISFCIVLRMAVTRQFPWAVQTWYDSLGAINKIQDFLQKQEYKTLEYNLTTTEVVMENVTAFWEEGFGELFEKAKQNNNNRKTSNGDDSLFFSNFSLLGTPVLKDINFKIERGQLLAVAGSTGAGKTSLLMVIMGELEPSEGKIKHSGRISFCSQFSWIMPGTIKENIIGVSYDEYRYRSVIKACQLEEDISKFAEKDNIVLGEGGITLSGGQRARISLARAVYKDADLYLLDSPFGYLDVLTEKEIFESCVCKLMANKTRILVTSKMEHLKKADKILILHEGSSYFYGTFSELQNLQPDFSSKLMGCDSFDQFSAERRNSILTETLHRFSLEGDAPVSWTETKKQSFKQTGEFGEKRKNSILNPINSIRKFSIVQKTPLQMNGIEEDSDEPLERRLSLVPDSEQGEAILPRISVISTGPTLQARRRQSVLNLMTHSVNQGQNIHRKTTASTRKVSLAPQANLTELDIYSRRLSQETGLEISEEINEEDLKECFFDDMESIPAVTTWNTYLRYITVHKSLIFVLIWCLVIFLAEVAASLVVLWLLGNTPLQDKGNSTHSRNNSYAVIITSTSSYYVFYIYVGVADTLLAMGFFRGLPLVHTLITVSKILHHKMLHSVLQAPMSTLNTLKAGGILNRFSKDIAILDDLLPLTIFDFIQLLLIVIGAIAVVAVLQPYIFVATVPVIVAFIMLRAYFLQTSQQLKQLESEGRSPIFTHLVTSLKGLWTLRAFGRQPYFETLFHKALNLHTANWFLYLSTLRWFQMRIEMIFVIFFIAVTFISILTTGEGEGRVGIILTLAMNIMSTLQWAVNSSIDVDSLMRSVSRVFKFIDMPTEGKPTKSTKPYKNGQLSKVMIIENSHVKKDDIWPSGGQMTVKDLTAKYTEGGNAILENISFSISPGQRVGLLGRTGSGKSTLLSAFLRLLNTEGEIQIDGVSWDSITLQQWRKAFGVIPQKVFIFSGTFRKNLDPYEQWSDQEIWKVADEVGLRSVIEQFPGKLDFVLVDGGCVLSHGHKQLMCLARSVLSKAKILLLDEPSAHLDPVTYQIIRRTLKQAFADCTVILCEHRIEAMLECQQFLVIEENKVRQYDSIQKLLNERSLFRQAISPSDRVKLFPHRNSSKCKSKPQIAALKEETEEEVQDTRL

Consider `Cc1cccc(C)c1-c1cc2nc(n1)NS(=O)(=O)c1cccc(c1)C(=O)N[C@@H](CC(F)(F)F)CO2` (single isomer, unassigned) [Compound 93, 6-(2,6-dimethylphenyl)-11-(2,2,2-trifluoroethyl)-9-oxa-2λ^6-thia-3,5,12,19-tetraazatricyclo[12.3.1.14,8]nonadeca-1(17),4(19),5,7,14(18),15-hexaene-2,2,13-trione], for which, where the note is “Table 9”, the “Ent. A Max Activity” value is listed as “++ (++ is 30-60%)” and the EC50 (usually the concentration giving half of the maximal effect) lay in the range of 3000 to 30000 nM.

With `Cc1cccc(C)c1-c1cc2nc(n1)NS(=O)(=O)c1cccc(c1)C(=O)N[C@@H](CC(F)(F)F)CO2` (single isomer, unassigned) [Compound 94, 6-(2,6-dimethylphenyl)-11-(2,2,2-trifluoroethyl)-9-oxa-2λ^6-thia-3,5,12,19-tetraazatricyclo[12.3.1.14,8]nonadeca-1(17),4(19),5,7,14(18),15-hexaene-2,2,13-trione], under “Table 9”, the “Ent. A Max Activity” value is on record as “+++ (+++ is >60%)” and the EC50 was in the range of 1000 to 3000 nM.

In the case of `Cc1cccc(C)c1-c1cc2nc(n1)NS(=O)(=O)c1cccc(c1)C(=O)N[C@@H](CC13CC4CC(CC(C4)C1)C3)CO2` (single isomer, unassigned) [Compound 111, 11-(1-adamantylmethyl)-6-(2,6-dimethylphenyl)-2,2-dioxo-9-oxa-2λ^6-thia-3,5,12,19-tetrazatricyclo[12.3.1.14,8]nonadeca-1(18),4(19),5,7,14,16-hexaen-13-one], where the note is “Table 9”, the “Ent. A Max Activity” value is reported as “++ (++ is 30-60%)” and the EC50 is less than 1000 nM.

With `Cc1cccc(C)c1-c1cc2nc(n1)NS(=O)(=O)c1cccc(c1)C(=O)NC[C@H](c1ccc(CCC(C)(C)C)cc1)O2` (stereo in doubt) [Compound 148], under “Table 9”, the “Ent. A Max Activity” value is reported as “++ (++ is 30-60%)” and the EC50 is less than 1000 nM.

For the compound `Cc1cc(C(C)(C)C)ccc1[C@H]1CNC(=O)c2cccc(c2)S(=O)(=O)Nc2nc(cc(-c3c(C)cccc3C)n2)O1` (stereo in doubt) [Compound 156], the “Ent. A Max Activity” value (Table 8) is listed as “+ (+ is <30%)”.

Take `Cc1cccc(C)c1-c1cc2nc(n1)NS(=O)(=O)[C@H]1CCCN(C1)C(=O)N[C@H](CC1CCCCC1)CO2` (stereo in doubt) [Compound 159]: the “Ent. A Max Activity” value (Table 8) is listed as “+ (+ is <30%)”.

For `Cc1cccc(C)c1-c1cc2nc(n1)NS(=O)(=O)c1cccc(c1)C(=O)N[C@@H](C(CC(C)C)c1ccccc1)CO2` (stereo in doubt) [Compound 180], under “Table 9”, the “Ent. A Max Activity” value is reported as “++ (++ is 30-60%)” and the 50% effective concentration (EC50) was less than 1000 nM.

With `Cc1cccc(C)c1-c1cc2nc(n1)NS(=O)(=O)c1cccc(c1)C(=O)N[C@@H](C(CC(C)C)c1ccccc1)CO2` (stereo in doubt) [Compound 182], where the note is “Table 9”, the “Ent. A Max Activity” value is recorded as “++ (++ is 30-60%)” and the concentration for a half-maximal effect (EC50) is less than 1000 nM.

`Cc1cccc(C)c1-c1cc2nc(n1)NS(=O)(=O)c1cccc(c1)C(=O)N[C@@H](CCC(F)(F)F)CO2` (stereo in doubt) [Compound 189]: under “Table 8”, the “Ent. A Max Activity” value is given as “+ (+ is <30%)” and the EC50 lay within 1000 to 3000 nM.

Regarding `Cc1cccc(C)c1-c1cc2nc(n1)NS(=O)(=O)c1cccc(c1)C(=O)N[C@H](CCC(F)(F)F)CO2` (stereo in doubt) [Compound 190], where the note is “Table 8”, the “Ent. A Max Activity” value is “+++ (+++ is >60%)” and the EC50 was less than 1000 nM.

As for `Cc1cccc(C)c1-c1cc2nc(n1)NS(=O)(=O)c1cccc(c1)C(=O)N[C@H](CC1CCOCC1)CO2` (stereo in doubt) [Compound 191], under “Enteroid Assay A”, the “Ent. A Max Activity” value was “+++ (+++ is >600%)” and the 50% effective concentration (EC50) fell in the range of 3000 to 30000 nM.

Turning to `Cc1cccc(C)c1-c1cc2nc(n1)NS(=O)(=O)c1cccc(c1)CNC1C[C@@H](CN(C(=O)OCc3ccccc3)C1)O2` (stereo in doubt) [Compound 192], where the note is “Enteroid Assay A”, the “Ent. A Max Activity” value is “++ (++ is 30-60%)” and the 50% effective concentration (EC50) lay in the range of 1000 to 3000 nM.

On to `Cc1cccc(C)c1-c1cc2nc(n1)NS(=O)(=O)c1cccc(c1)CNC1C[C@@H](CN(C(=O)OCc3ccccc3)C1)O2` (stereo in doubt) [Compound 193], for which, under “Enteroid Assay A”, the “Ent. A Max Activity” value was “++ (++ is 30-60%)” and the EC50 lay in the range of 1000 to 3000 nM.

Take `Cc1cccc(C)c1-c1cc2nc(n1)NS(=O)(=O)c1cccc(c1)C(=O)N[C@@H](CC1CCC1)[C@@H](c1ccc(C(C)(C)C)cc1)O2` (stereo in doubt) [Compound 229]: for the setting “Table 8”, the “Ent. A Max Activity” value is reported as “+++ (+++ is >60%)” and the EC50 was less than 1000 nM.

On to `Cc1cccc(C)c1-c1cc2nc(n1)NS(=O)(=O)c1cccc(c1)C(=O)N[C@@H]1Cc3ccccc3[C@@H]1O2` (stereo in doubt) [Compound 246], for which, where the note is “Table 8”, the “Ent. A Max Activity” value is reported as “+++ (+++ is >60%)” and the half-maximal effective concentration (EC50) is less than 1000 nM.

Take `Cc1ccccc1[C@H]1CNC(=O)c2cccc(c2)S(=O)(=O)Nc2nc(cc(-c3c(C)cccc3C)n2)O1` (stereo in doubt) [Compound 277]: the “Ent. A Max Activity” value (Table 8) was “+ (+ is <30%)”.

In the case of `Cc1cccc(C)c1-c1cc2nc(n1)NS(=O)(=O)c1cccc(c1)C(=O)N[C@H](CC1(C(F)(F)F)CC1)CO2` (stereo in doubt) [Compound 289], under “Table 8”, the EC50 was in the range of 1000 to 3000 nM.

Regarding `CCC(C)(C)C(=O)N1CC[C@H]2NC(=O)c3cccc(c3)S(=O)(=O)Nc3nc(cc(-c4c(C)cccc4C)n3)OC2C1` (stereo in doubt) [Compound 371], for the setting “Table 9”, the “Ent. A Max Activity” value is given as “++ (++ is 30-60%)” and the EC50 fell in the range of 3000 to 30000 nM.

On to `Cc1cccc(C)c1-c1cc2nc(n1)NS(=O)(=O)c1cccc(c1)C(=O)N[C@@H]1CCN(C(=O)CC(C)(C)C)C[C@@H]1O2` (stereo in doubt) [Compound 380], for which, for the setting “Table 9”, the “Ent. A Max Activity” value is recorded as “++ (++ is 30-60%)” and the concentration for a half-maximal effect (EC50) was in the range of 3000 to 30000 nM.

As for `Cc1cccc(C)c1-c1cc2nc(n1)NS(=O)(=O)c1cccc(c1)C(=O)N[C@@H]1CCN(Cc3ccccc3)C[C@H]1O2` (stereo in doubt) [Compound 382], where the note is “Table 9”, the “Ent. A Max Activity” value is listed as “+++ (+++ is >60%)” and the EC50 is less than 1000 nM.

Turning to `Cc1cccc(C)c1-c1cc2nc(n1)NS(=O)(=O)c1cccc(c1)C(=O)N[C@@H]1CCN(C3CC4(CCCC4)C3)C[C@H]1O2` (stereo in doubt) [Compound 385], where the note is “Table 9”, the “Ent. A Max Activity” value is “+ (+ is <30%)” and the concentration giving a half-maximal response (EC50) fell in the range of 3000 to 30000 nM.

With `Cc1cccc(C)c1-c1cc2nc(n1)NS(=O)(=O)c1cccc(c1)C(=O)NC[C@@H](c1ccc(C(C)(F)F)cc1)O2` (stereo in doubt) [Compound 399], where the note is “Table 8”, the “Ent. A Max Activity” value is “+++ (+++ is >60%)” and the EC50 is less than 1000 nM.

Regarding `Cc1cccc(C)c1-c1cc2nc(n1)NS(=O)(=O)c1cccc(c1)C(=O)NC[C@@H](c1ccc(C(C)(F)F)cc1)O2` (stereo in doubt) [Compound 400], under “Table 8”, the “Ent. A Max Activity” value is listed as “+ (+ is <30%)” and the half-maximal effective concentration (EC50) fell in the range of 1000 to 3000 nM.

Consider `Cc1cccc(C)c1-c1cc2nc(n1)NS(=O)(=O)c1cccc(c1)C(=O)NC[C@H](c1ccc(C(F)(F)F)cc1)O2` (stereo in doubt) [Compound 402], for which, where the note is “Table 8”, the “Ent. A Max Activity” value is listed as “+ (+ is <30%)” and the EC50 was 3000 to 30000 nM.

Consider `Cc1cccc(C)c1-c1cc2nc(n1)NS(=O)(=O)c1cccc(c1)C(=O)NC[C@@H](CN1CCCCC1)O2` (stereo in doubt) [Compound 409], for which, where the note is “Table 8”, the “Ent. A Max Activity” value is listed as “+ (+ is <30%)”.

As for `Cc1cccc(C)c1-c1cc2nc(n1)NS(=O)(=O)c1cccc(c1)C(=O)NC1CCCC[C@@H]1O2` (stereo in doubt) [Compound 485], the half-maximal effective concentration (EC50) (Enteroid Assay A) is 1000 to 3000 nM.

As to `Cc1cccc(C)c1-c1cc2nc(n1)NS(=O)(=O)c1cccc(c1)C(=O)N[C@@H]1CCCCC1O2` (stereo in doubt) [Compound 487], for the setting “Enteroid Assay A”, the “Ent. A Max Activity” value is on record as “+++ (+++ is >600%)” and the concentration giving a half-maximal response (EC50) was less than 1000 nM.

For the compound `Cc1cccc(C)c1-c1cc2nc(n1)NS(=O)(=O)c1cccc(c1)C(=O)NCC(c1ccc(C3CCC3)cc1)O2` (stereo not drawn) [Compound 12, 10-(4-Cyclobutylphenyl)-6-(2,6-dimethylphenyl)-2,2-dioxo-9-oxa-2λ^6-thia-3,5,12,19-tetrazatricyclo[12.3.1.14,8]nonadeca-1(18),4(19),5,7,14,16-hexaen-13-one], where the note is “Table 9”, the “Ent. A Max Activity” value was “+++ (+++ is >60%)” and the EC50 was less than 1000 nM.

With `Cc1cccc(C)c1-c1cc2nc(n1)NS(=O)(=O)c1cccc(c1)C(=O)NCC(c1ccc([Si](C)(C)C)cc1)O2` (stereo not drawn) [Compound 15, 6-(2,6-Dimethylphenyl)-2,2-dioxo-10-(4-trimethylsilylphenyl)-9-oxa-2λ^6-thia-3,5,12,19-tetrazatricyclo[12.3.1.14,8]nonadeca-1(18),4(19),5,7,14,16-hexaen-13-one], the EC50 (Table 9) is less than 1000 nM.
